Results as given in patent US4000262A, “5-Epi-amino and 5-epi-azido-4,6-di-O-(aminoglycosyl)-2,5-dideoxystreptamines 1-N-alkyl-5-epi-amino and 1-N-alkyl-5-epi-azido-4,6-di-O-(aminoglycosyl)-2,5-dideoxystreptamines” (priority 1975, dated 1976).
In brackets after ≈: the same amount, converted by molar mass. Where two headings read alike, the source gives them in different places. One block for each molecule: values may come before it.

Experiments:
Streptococcus pyogenes C = test: in vitro minimal inhibitory concentration, standard tube dilution method; format: cell-based
Excerpt: In Table 1, set forth below is shown the in vitro minimal inhibitory concentration (MIC) of gentamicin C2a against representative gram-positive and gram-negative bacteria. The results are derived using the standard tube dilution method in Mueller-Hinton broth.
In Table 2, set forth below is shown the in vitro minimal inhibitory concentration (MIC) of gentamicin C2b against representative gram-positive and gram-negative bacteria. The results are derived using the standard tube dilution method in Mueller-Hinton broth.

[1] = tested on: gram positive bacteria and gram negative bacteria; test: antibacterial activity (general statements, standard dilution tests); format: cell-based; conditions: gram negative organisms resistant to the 5-hydroxy precursors
[2] = tested on: gram-positive and gram-negative bacteria; test: in vitro antibacterial spectrum / activity compared with gentamicin C components; format: cell-based; conditions: as the free base
[3] = acute intravenous toxicity; conditions: mouse, in vivo, male CF-1 mice weighing 20 grams each

MIC (Streptococcus pyogenes C; Mueller-Hinton broth, read-out: MIC): 3 mg/L (≈ 6.47 µM)
Structure (SMILES): CNC[C@@H]1CC[C@@H](N)[C@@H](O[C@H]2[C@H](O)[C@@H](O[C@H]3OC[C@](C)(O)[C@H](NC)[C@H]3O)[C@H](N)C[C@@H]2N)O1 [gentamicin C2b]

Structure (SMILES): CNC1C(O)C(OC2C(N)CC(N)C(OC3OC(CN)CCC3N)C2N)OCC1(C)O (stereo not drawn) [5-epi-amino-5-deoxygentamicin C1a]
cidal activity [1]: cidal against certain gram negative organisms which are resistant to the 5-hydroxy precursors

Structure (SMILES): CN[C@@H]1[C@@H](O)[C@@H](O[C@@H]2[C@@H](O)[C@H](O[C@H]3O[C@H]([C@H](C)N)CC[C@H]3N)[C@@H](N)C[C@H]2N)OC[C@]1(C)O [gentamicin C2a]
activity relative to the gentamicin "C" complex [2]: about 74%
LD50 [3]: 110 mg/kg
MIC (Streptococcus pyogenes C): 7.5 mg/L (≈ 16.2 µM)
